Laboratory results taken from ChEMBL document CHEMBL1151907, “Cyclic glycopeptidomimetics through a versatile sugar-based scaffold” (Bioorg Med Chem Lett, 2009).
The source made the active and inactive calls. No cut-off for these calls is given here.

Experiments:
[1] = molecular target: T1, Substance-K receptor (Homo sapiens) (UniProt P21452); assay: Displacement of [125I]neurokinin A from human tachykinin NK2 receptor expressed in CHO cell at 10 uM; type: cell-based
T1 sequence (whole entry): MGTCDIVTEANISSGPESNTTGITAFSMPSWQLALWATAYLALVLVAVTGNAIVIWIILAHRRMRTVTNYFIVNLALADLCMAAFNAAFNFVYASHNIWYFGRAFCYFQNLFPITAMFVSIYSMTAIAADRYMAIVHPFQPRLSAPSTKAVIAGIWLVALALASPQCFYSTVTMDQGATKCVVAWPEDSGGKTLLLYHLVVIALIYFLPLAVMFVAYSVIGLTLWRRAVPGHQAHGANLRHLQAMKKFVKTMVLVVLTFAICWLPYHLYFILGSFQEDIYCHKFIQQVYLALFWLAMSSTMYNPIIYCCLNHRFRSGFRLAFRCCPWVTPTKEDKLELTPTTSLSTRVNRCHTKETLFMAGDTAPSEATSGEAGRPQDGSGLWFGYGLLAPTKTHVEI

[2] = molecular target: Integrin alpha-4/beta-1 (Homo sapiens) (UniProt P05556+P13612); assay: Inhibition of integrin alpha-4-beta-1-mediated U937 and Jurkat cell adhesion to VCAM-1 coated surface up to 100 uM by BCECF fluorescence measurement; type: cell-based

Row | SMILES | inhibition [1] [%] | inhibition [2]
1 | COC(=O)C1=C2C[C@@H](C(=O)OCc3ccccc3)NC(=O)[C@H](C)NC(=O)[C@H](Cc3ccccc3)NC(=O)[C@H](Cc3ccccc3)NC(=O)[C@H](Cc3ccccc3)NC(=O)[C@H](C)NC(=O)[C@H]3O[C@H](O2)[C@H](S1)[C@@H](O)[C@@H]3O | 25 | –
2 | CC[C@H](C)[C@@H]1NC(=O)[C@H](CCC(=O)O)NC(=O)[C@H]2O[C@@H]3OC(=C(C(=O)OC)S[C@@H]3[C@@H](O)[C@@H]2O)C[C@@H](C(=O)O)NC(=O)[C@H](C(C)C)NC(=O)[C@H](CC(=O)O)NC(=O)[C@H](CC(C)C)NC1=O | – | inactive
